The results in this text go back to US20080206194A1, “Method for the treatment of breast cancer” (priority 2007, published 2008).

Entries after “also recorded” stand apart in the source; their conditions may differ.

One experiment has as its system ERα. The experiment is described as follows: ERα detection by immunochemical staining of DMBA/progestin-induced mammary carcinomas. The format is in vivo. The note with it: wild-type FVB mice, medroxyprogesterone/DMBA-induced carcinogenesis, 40 mg/kg subcutaneously, weekly, for 12 weeks, rabbit polyclonal antibody. On the procedure: FIG. 1 illustrates ER detection by immunochemical staining with a rabbit polyclonal antibody of dimethylbenz(α)anthracene (DMBA)/progestin-induced mammary carcinomas of wild-type FVB mice, transgenic MMTV-Pax8PPARγ FVB mice and GW9662-treated mice, with 40 mg/kg, subcutaneously, weekly, for 12 weeks.
Mammary carcinogenesis was induced in female wild-type FVB/N or MMTV-Pax8PPARγ transgenic mice purchased from Charles River Laboratories (Wilmington, Mass.) by subcutaneous injection of 600 mg/kg medroxyprogesterone acetate suspension (150 mg/ml, Sicor Pharmaceuticals Inc., Irvine, Calif.), followed one week later by four weekly oral doses of 1 mg dimethylbenz(a)anthracene (DMBA) dissolved in cottonseed oil (10 mg/ml). Following the last dose of DMBA, mice were injected subcutaneously once a week with 40 mg/kg GW9662 dissolved in cottonseed oil (10 mg/ml). […]
Mammary carcinomas from transgenic MMTV-Pax8PPARγ FVB mice stained intensely for ERα, particularly in the basal layer of cells, as compared to low ERα staining in ductal epithelium from wild-type FVB mice (see FIG. 1). […] ERα was detected by immunochemical staining with a rabbit polyclonal antibody (Santa Cruz Biotechnology, sc-542) diluted 1:1000.

The next experiment relates to mammary tumors. The experiment is described as follows: Mammary tumor formation after carcinogenesis in Pax8PPARγ transgenic mice. The following applies: MMTV-Pax8PPARγ transgenic mice, ER(+) carcinomas; 200 mg/kg subcutaneously once a week for three months after carcinogen administration. Type of experiment: in vivo. As for the experimental part:
FIG. 2 is a bar graph showing the total number of mammary tumors appearing in transgenic MMTV-Pax8PPARγ FVB mice treated with either vehicle or ERα antagonist fulvestrant, 200 mg/kg subcutaneously once per week for three months after carcinogen administration.
Mammary carcinogenesis (see, e.g., Yin et al., Characterization of medroxyprogesterone and DMBA-induced multilineage mammary tumors by gene expression. Mol. Carcinogenesis 42:pp. 42-50, (2005)) was induced in Pax8PPARγ transgenic mice, which mammary carcinomas are ER(+) and were treated once a week for three months with the ER antagonist fulvestrant at a dose of 200 mg/kg administered subcutaneously in an oil emulsion. […] Each experimental group consisted of 6 mice. FIG. 2 indicates the total number of mammary tumors appearing three months after carcinogen administration.

As to `O=C(Nc1ccccc1)c1cc([N+](=O)[O-])ccc1Cl` [GW9662, 2-Chloro-5-nitrobenzanilide], in the experiment on ERα, the “ERα expression (immunochemical staining) in mammary carcinomas” value is listed as “substantial ERα staining; also recorded: pattern of ERα expression similar to MMTV-Pax8PPARγ mice”. As to `C[C@]12CC[C@@H]3c4ccc(O)cc4C[C@@H](CCCCCCCCC[S+]([O-])CCCC(F)(F)C(F)(F)F)[C@H]3[C@@H]1CC[C@@H]2O` (some centres unmarked) [fulvestrant], the “tumor formation (total number of mammary tumors)” value in the experiment with mammary tumors is “completely inhibited tumor formation”.
